Data reported in patent publication US5177069A, “Naphthysulfonylalkanoic acid compounds and pharmaceutical compositions thereof” (Kissei Pharmaceutical Co., Ltd., priority 1989, dated 1993).

What was measured:
CCK-receptor = biological target: T1, CCK-receptor (Rattus norvegicus, UniProt P30551); assay: CCK-receptor binding assay in pancreas (125I-CCK-8, pancreatic plasma membranes); set-up: species or system Male Wistar rats; details: 30 pM 125I-CCK-8, rat pancreatic plasma membranes, 37° C., 30 minutes; inhibition of specific binding
T1 construct: Pancreatic plasma membranes were prepared by the method of Chang et al; from tissue; host or cells: pancreas of male Wistar rats (pancreatic plasma membranes)
T1 sequence (P30551 1-444): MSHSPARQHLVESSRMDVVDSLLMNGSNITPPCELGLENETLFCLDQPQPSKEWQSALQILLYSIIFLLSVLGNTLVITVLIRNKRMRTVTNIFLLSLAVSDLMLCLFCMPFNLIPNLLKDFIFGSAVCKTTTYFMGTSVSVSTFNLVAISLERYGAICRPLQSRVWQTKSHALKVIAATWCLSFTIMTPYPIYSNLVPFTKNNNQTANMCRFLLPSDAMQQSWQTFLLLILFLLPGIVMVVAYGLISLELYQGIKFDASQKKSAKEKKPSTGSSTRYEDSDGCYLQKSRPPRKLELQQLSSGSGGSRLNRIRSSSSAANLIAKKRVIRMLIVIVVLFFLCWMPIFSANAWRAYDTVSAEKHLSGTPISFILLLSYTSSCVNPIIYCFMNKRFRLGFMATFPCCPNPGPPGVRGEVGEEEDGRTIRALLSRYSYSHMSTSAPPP
Procedure: CCK-receptor binding assay in pancreas
Pancreatic plasma membranes were prepared by the method of Chang et al. (Molecular Pharmacology, Vol. 30, p. 212-, 1986). Male Wistar rats were sacrificed by decapitation and the pancreas was removed. The pancreas was dissected free from adipose tissue and minced in 50 volumes ice-cold Tris-HCl buffer (50 mM, pH 7.4 at 37° C.). Homogenization was performed using ultra disperser and the homogenate was centrifuged at 50,000×g for 10 minutes. The pellet was washed by resuspension in the same volume of fresh Tris-HCl buffer and again centrifuged as above. The final pellet was suspended in assay buffer (50 mM Tris-HCl, 5 mM MgCl2, 5 mM dithiothreitol, 2 mg/ml of bovine serum albumin, and 0.14 mg/ml of bacitracin), and used as receptor sources for binding assay.
Thirty pM ^125 I-CCK-8 (final concentration), test drug or vehicle (for total binding) or 10^-6 M CCK-8 (for nonspecific binding) were added to the assay medium containing pancreatic plasma membranes (0.5 mg of original wet weight/ml). After incubation at 37° C. for 30 minutes, the assay medium was filtrated under reduced pressure through glass fiber filter and washed four times with 4 ml of ice-cold Tris-HCl buffer. The radioactivity trapped on the filter was counted by γ-counter (Packard 5650).
Specific binding was defined as the radioactivity bound after subtracting nonspecific binding determined in the presense of 10^-6 M unlabeled CCK-8. IC50 value was calculated from inhibition percentage of specific binding by each test drug.

isolated gallbladder = assay: CCK-antagonism in isolated gallbladder (contraction induced by CCK-8); type: cell-based, male Hartley guinea-pig; details: Cavia porcellus; guinea-pig gallbladder strips, Krebs solution 37° C.; contraction induced by 10^-8 M CCK-8
Procedure: CCK-antagonism in isolated gallbladder
Gallbladder strips isolated from male Hartley guinea-pig were prepared and suspended in Magnus bath filled with Krebs solution (1 g of initial tension). The solution kept at 37° C. was aerated with a mixture of 95% O2 and 5% CO2. The isometric contraction of strips was recorded through a force-displacement transducer. Antagonism by test drugs against gallbladder contraction induced by 10^-8 M CCK-8 was examined and IC50 value was calculated.

amylase secretion = assay: Effect on amylase secretion in rats (stimulated by CCK-8); type: in vivo, Male Wistar rats; details: Rattus norvegicus; intraduodenal, 30 minutes before subcutaneous CCK-8 (10 μg/kg); urethane-anesthetized rats
Procedure: Effect on amylase secretion in rats
Male Wistar rats were anesthetized with urethane (1.5 g/kg, S.C.), and tracheal cannula was inserted. Biliopancreatic juice was collected from the cannula which had been inserted into the common bile duct. Thirty minutes after intraduodenal administration of test drug, amylase secretion was stimulated by subcutaneous injection of CCK-8 (10 μg/kg). Amylase concentration in the sample collected every 30 minutes during experiment was assayed using Amylase B Test (Wako), and ED50 value was calculated.

Row | Compound | IC50 (CCK-receptor) [nM] | IC50 (isolated gallbladder) [nM] | ED50 (amylase secretion) [mg/kg]
1 | CCCCCN(CCCOC)C(=O)C(CCC(=O)OC)CS(=O)(=O)c1ccc2ccccc2c1 (racemic) [Compound No. 3, methyl 4-[N-(3-methoxypropyl)-N-pentylcarbamoyl]-5-(2-naphthylsulfonyl)pentanoate] | 2400 | – | –
2 | CCCCCN(CC(=O)OCC)C(=O)C(CCC(=O)OCc1ccccc1)CS(=O)(=O)c1ccc2ccccc2c1 (racemic) [compound 6, benzyl 4-(N-ethoxycarbonylmethyl-N-pentylcarbamoyl)-5-(2-naphthylsulfonyl)pentanoate] | 1700 | – | –
3 | CCCCCN(CC(=O)OCC)C(=O)C(CCC(=O)OC)CS(=O)(=O)c1ccc2ccccc2c1 (racemic) [compound 7, methyl 4-(N-ethoxycarbonylmethyl-N-pentylcarbamoyl)-5-(2-naphthylsulfonyl)pentanoate] | 1700 | – | –
4 | CCCCCN(CCCOC)C(=O)C(CCC(=O)O)CS(=O)(=O)c1ccc2ccccc2c1 (single isomer, unassigned) [compound 23] | 3300 | – | –
5 | CCCCCN(CCCOC)C(=O)C(CCC(=O)O)CS(=O)(=O)c1ccc2ccccc2c1 (single isomer, unassigned; (-)) [compound 22, (-)-4-[N-(3-methoxypropyl)-N-pentylcarbamoyl]-5-(2-naphthylsulfonyl)pentanoic acid] | 120 | 2800 | –
6 | CCCCCN(CC(=O)OCC)C(=O)C(CCC(=O)O)CS(=O)(=O)c1ccc2ccccc2c1 (stereo not shown) [Compound No. 19, 4-(N-Ethoxycarbonylmethyl-N-pentylcarbamoyl)-5-(2-naphthylsulfonyl)pentanoic acid] | 320 | 2100 | 33.3
7 | COC(=O)CCC(CS(=O)(=O)c1ccc2ccccc2c1)C(=O)N(CCC1CCCCC1)CCC1CCCCC1 (stereo not shown) [Compound No. 34, Methyl 4-[N,N-bis(2-cyclohexylethyl)carbamoyl]-5-(2-naphthylsulfonyl)pentanoate] | 1700 | – | –
8 | O=C(O)CCC(CS(=O)(=O)c1ccc2ccccc2c1)C(=O)N(CCC1CCCCC1)CCC1CCCCC1 (stereo not shown) [Compound No. 39, 4-[N,N-Bis(2-cyclohexylethyl)carbamoyl]-5-(2-naphthylsulfonyl)pentanoic acid] | 1800 | – | –
9 | CCCCCN(CCOC(C)=O)C(=O)C(CCC(=O)O)CS(=O)(=O)c1ccc2ccccc2c1 (stereo not shown) [Compound No. 50, 4-[N-(2-Acetoxyethyl)-N-pentylcarbamoyl]-5-(2-naphtylsulfonyl)pentanoic acid] | 200 | – | –
10 | CCCCCN(CC(=O)N1CCCCC1)C(=O)C(CCC(=O)O)CS(=O)(=O)c1ccc2ccccc2c1 (stereo not shown) [Compound No. 51, 5-(2-Naphthylsulfonyl)-4-(N-pentyl-N-piperidinocarbonylmethylcarbamoyl)pentanoic acid] | 400 | – | –
11 | CCCCCN(CCCCC)C(=O)C(CCC(=O)O)CS(=O)(=O)c1ccc2ccccc2c1 (stereo not shown) [compound 20] | 29 | 2600 | 9.6
12 | CCCCCN(CCC(=O)OCC)C(=O)C(CCC(=O)O)CS(=O)(=O)c1ccc2ccccc2c1 (stereo not shown) [compound 21] | 400 | 2900 | –
13 | CCCCCN(CC(=O)OC(C)C)C(=O)C(CCC(=O)O)CS(=O)(=O)c1ccc2ccccc2c1 (stereo not shown) [compound 24] | 44 | – | –
14 | CCCCCN(CC(=O)N(C)C)C(=O)C(CCC(=O)O)CS(=O)(=O)c1ccc2ccccc2c1 (stereo not shown) [compound 27] | 2200 | – | –
15 | CCCCCN(CC(=O)N(CC)CC)C(=O)C(CCC(=O)O)CS(=O)(=O)c1ccc2ccccc2c1 (stereo not shown) [compound 28] | 210 | – | –
16 | CCCCCN(CC(=O)O)C(=O)C(CCC(=O)O)CS(=O)(=O)c1ccc2ccccc2c1 (stereo not shown) [compound 33] | 3400 | – | –
17 | CC(=O)OCCN(CCOC(C)=O)C(=O)C(CCC(=O)OCc1ccccc1)CS(=O)(=O)c1ccc2ccccc2c1 (stereo not shown) [compound 35] | 4000 | – | –
18 | C=CCOCCN(CCOCC=C)C(=O)C(CCC(=O)OC)CS(=O)(=O)c1ccc2ccccc2c1 (stereo not shown) [compound 37] | 3100 | – | –
19 | CCOC(=O)CN(CCCOC)C(=O)C(CCC(=O)OCc1ccccc1)CS(=O)(=O)c1ccc2ccccc2c1 (stereo not shown) [compound 38] | 110 | – | –
20 | CCOC(=O)CN(CC(=O)OCC)C(=O)C(CCC(=O)O)CS(=O)(=O)c1ccc2ccccc2c1 (stereo not shown) [compound 40, 4-[N,N-Bis(ethoxycarbonylmethyl)carbamoyl]-5-(2-naphthylsulfonyl)pentanoic acid] | 2100 | – | –
21 | C=CCOCCN(CCOCC=C)C(=O)C(CCC(=O)O)CS(=O)(=O)c1ccc2ccccc2c1 (stereo not shown) [compound 41] | 1400 | – | –
22 | CCCCCN(CC(=O)N1CCOCC1)C(=O)C(CCC(=O)O)CS(=O)(=O)c1ccc2ccccc2c1 (stereo not shown) [compound 54] | 610 | – | –
23 | CCCCCN(CC(=O)N1CCCC1)C(=O)C(CCC(=O)O)CS(=O)(=O)c1ccc2ccccc2c1 (stereo not shown) [compound 55] | 900 | – | –

Second part, led by results:

Row | IC50 (CCK-receptor) [nM] | Compound | IC50 (isolated gallbladder) [nM] | ED50 (amylase secretion) [mg/kg]
24 | 25 | CCCCCN(CC(=O)OC(C)(C)C)C(=O)C(CCC(=O)O)CS(=O)(=O)c1ccc2ccccc2c1 (single isomer, unassigned) [compound 26] | – | –
25 | 7300 | CCCCCN(CC(=O)O)C(=O)C(CCC(=O)OC)CS(=O)(=O)c1ccc2ccccc2c1 (stereo not shown) [Compound No. 15, N-[2-(2-Methoxycarbonylethyl)-3-(2-naphthylsulfonyl)propionyl]-N-pentylglycine] | – | –
26 | 340 | CCCCCN(CCCOC)C(=O)C(CCC(=O)O)CS(=O)(=O)c1ccc2ccccc2c1 (stereo not shown) [Compound No. 18, 4-[N-(3-Methoxypropyl)-N-pentylcarbamoyl]-5-(2-naphthylsulfonyl)pentanoic acid] | 6800 | 15.7
27 | 49 | CCCCCN(CC(=O)OC(C)(C)C)C(=O)C(CCC(=O)O)CS(=O)(=O)c1ccc2ccccc2c1 (stereo not shown) [compound 25] | – | 8
28 | 2300 | CCCCCN(CC(=O)N(C(C)C)C(C)C)C(=O)C(CCC(=O)O)CS(=O)(=O)c1ccc2ccccc2c1 (stereo not shown) [compound 29] | – | –
29 | 4100 | CCCCCN(CC(=O)NC(C)C)C(=O)C(CCC(=O)O)CS(=O)(=O)c1ccc2ccccc2c1 (stereo not shown) [compound 30] | – | –
30 | 2000 | CCCCCN(CC(=O)NC1CCCCC1)C(=O)C(CCC(=O)O)CS(=O)(=O)c1ccc2ccccc2c1 (stereo not shown) [compound 31] | – | –
31 | 290 | CCCCCN(CCCCC)C(=O)C(CC(=O)O)CS(=O)(=O)c1ccc2ccccc2c1 (stereo not shown) [compound 32] | – | –
32 | 6500 | CCOC(=O)CN(CC(=O)OCC)C(=O)C(CCC(=O)OCc1ccccc1)CS(=O)(=O)c1ccc2ccccc2c1 (stereo not shown) [compound 36, benzyl 4-[N,N-bis(ethoxycarbonylmethyl)carbamoyl]-5-(2-naphthylsulfonyl)pentanoate] | – | –
33 | 190 | CCCCCN(CCOC(=O)C(C)(C)C)C(=O)C(CCC(=O)O)CS(=O)(=O)c1ccc2ccccc2c1 (stereo not shown) [compound 52] | – | –
34 | 220 | CCCCCN(CCCN1CCCC1=O)C(=O)C(CCC(=O)O)CS(=O)(=O)c1ccc2ccccc2c1 (stereo not shown) [compound 53] | – | –
